Measurements from paper PMC2863073 (Glia, 2008).
pIC50: −log10 of the molar value.

System: oligodendrocyte NMDA receptor (NR1-containing; probably NR1, NR2C and NR3)
Test: whole-cell patch clamp of NMDA-evoked current, […] min memantine pre-exposure
Type: cell-based, Rattus norvegicus

pIC50: 4.27
Compound: CC12CC3CC(C)(C1)CC(N)(C3)C2 [memantine]
